# Results from the supplement of paper PMC10733146.
# Experiments:
# Assay in all cases: viability relative to DMSO control (fraction); higher = less drug effect (more viable cells)
# Settings in all cases: 48 h
# [1] = compound: O=C(NO)c1cccc(C(=O)NCCc2ccccc2)c1
# How it was run: (§1)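 Using 384-well plates with compounds already plated at five concentrations, one well per concentration, 4 × 10^4 primary mononuclear tumour cells were added per well. Cells were Ficoll-isolated from blood or bone marrow or came from processed lymph node, fresh or cryopreserved. They were kept for 48 h at 37 °C and 5% CO2 in RPMI-1640 supplemented with penicillin/streptomycin, L-glutamine and human serum, and viability was read as CellTiter-Glo luminescence relative to the median of 16 inner DMSO wells.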
# [2] = compound: CC1(C)CCC(CN2CCN(c3ccc(C(=O)NS(=O)(=O)c4ccc(NCC5CCOCC5)c([N+](=O)[O-])c4)c(Oc4cnc5[nH]ccc5c4)c3)CC2)=C(c2ccc(Cl)cc2)C1 [Venetoclax]
# How it was run: as §1
# [3] = compound: O=C(Nc1ccc2[nH]nc(-c3ccncc3)c2c1)[C@@H]1CCN(CC(=O)N2CCN(c3ccc(-c4ncccn4)cc3)CC2)C1
# How it was run: as §1
# [4] = compound: c1cn2cc(-c3ccc4cn[nH]c4c3)nc(Nc3ccc(N4CCOCC4)cc3)c2n1 [Entospletinib]
# How it was run: as §1
# [5] = compound: CC[C@]1(O)C[C@@H]2CN(CCc3c([nH]c4ccccc34)[C@@](C(=O)OC)(c3cc4c(cc3OC)N(C)[C@H]3[C@@](O)(C(N)=O)[C@H](O)[C@]5(CC)C=CCN6CC[C@]43[C@@H]65)C2)C1 [Vindesine]
# How it was run: as §1
# [6] = compound: CC(C)N(CCCNC(=O)Nc1ccc(C(C)(C)C)cc1)C[C@H]1O[C@@H](n2cc(Br)c3c(N)ncnc32)[C@H](O)[C@@H]1O [SGC 0946]
# How it was run: as §1
# [7] = compound: C[C@H](NC(=O)CCC(F)(F)F)C(=O)N[C@@H]1C(=O)N(CCO)c2ncccc2-c2ccccc21
# How it was run: as §1
# [8] = compound: CCN(CCCOc1ccc2c(Nc3cc(CC(=O)Nc4cccc(F)c4)[nH]n3)ncnc2c1)CCOP(=O)(O)O [Barasertib]
# How it was run: as §1
# [9] = compound: CCN(c1cc(-c2ccc(CN3CCOCC3)cc2)cc(C(=O)NCc2c(C)cc(C)[nH]c2=O)c1C)C1CCOCC1 [EPZ-6438]
# How it was run: as §1
# [10] = compound: C[C@H]1C[C@@H](n2c(Nc3ccc(OC(F)(F)F)cc3)nc3cc(CCC(=O)O)ccc32)CC(C)(C)C1
# How it was run: as §1
# [11] = compound: O=C(O)CCCc1ccc(N(CCCl)CCCl)cc1 [Chlorambucil]
# How it was run: as §1
# [12] = compound: O=C(/C=C\n1cnc(-c2cc(C(F)(F)F)cc(C(F)(F)F)c2)n1)NNc1cnccn1 [Selinexor]
# How it was run: as §1
# [13] = compound: CO[C@@H]1[C@H](N(C)C(=O)c2ccccc2)C[C@H]2O[C@]1(C)n1c3ccccc3c3c4c(c5c6ccccc6n2c5c31)C(=O)NC4 [Midostaurin hydrate]
# How it was run: as §1
# [14] = compound: Cn1c(CCCC(=O)O)nc2cc(N(CCCl)CCCl)ccc21 [Bendamustine]
# How it was run: as §1
test system,measurement,setting,value
primary DLBCL patient cells (S082),viability,[1]; 0.024 µM,0.969
same,viability,[1]; 0.12 µM,0.932
same,viability,[1]; 0.6 µM,0.951
same,viability,[1]; 3 µM,0.899
same,viability,[1]; 15 µM,0.867
same,viability,[2]; 0.00064 µM,1.01
same,viability,[2]; 0.0032 µM,0.876
same,viability,[2]; 0.016 µM,0.547
same,viability,[2]; 0.08 µM,0.143
same,viability,[2]; 0.4 µM,0.0409
same,viability,[3]; 0.008 µM,0.875
same,viability,[3]; 0.04 µM,0.771
same,viability,[3]; 0.2 µM,0.809
same,viability,[3]; 1 µM,0.79
same,viability,[3]; 5 µM,0.743
same,viability,[4]; 0.024 µM,1.04
same,viability,[4]; 0.12 µM,1.03
same,viability,[4]; 0.6 µM,0.89
same,viability,[4]; 3 µM,0.98
same,viability,[4]; 15 µM,0.926
same,viability,[5]; 0.016 µM,0.728
same,viability,[5]; 0.08 µM,0.56
same,viability,[5]; 0.4 µM,0.532
same,viability,[5]; 2 µM,0.421
same,viability,[5]; 10 µM,0.366
same,viability,[6]; 0.024 µM,0.899
same,viability,[6]; 0.12 µM,0.975
same,viability,[6]; 0.6 µM,0.932
same,viability,[6]; 3 µM,0.91
same,viability,[6]; 15 µM,0.834
same,viability,[7]; 0.016 µM,1.1
same,viability,[7]; 0.08 µM,1.12
same,viability,[7]; 0.4 µM,1.08
same,viability,[7]; 2 µM,1.19
same,viability,[7]; 10 µM,1.16
same,viability,[8]; 0.0008 µM,0.93
same,viability,[8]; 0.004 µM,0.902
same,viability,[8]; 0.02 µM,0.881
same,viability,[8]; 0.1 µM,0.945
same,viability,[8]; 0.5 µM,0.979
same,viability,[9]; 0.024 µM,0.978
same,viability,[9]; 0.12 µM,0.97
same,viability,[9]; 0.6 µM,0.962
same,viability,[9]; 3 µM,0.896
same,viability,[9]; 15 µM,0.905
same,viability,[10]; 0.024 µM,0.849
same,viability,[10]; 0.12 µM,1.04
same,viability,[10]; 0.6 µM,0.914
same,viability,[10]; 3 µM,0.847
same,viability,[10]; 15 µM,0.943
same,viability,[11]; 0.032 µM,1.07
same,viability,[11]; 0.16 µM,0.989
same,viability,[11]; 0.8 µM,1.06
same,viability,[11]; 4 µM,1
same,viability,[11]; 20 µM,0.831
same,viability,[12]; 0.008 µM,0.931
same,viability,[12]; 0.04 µM,0.971
same,viability,[12]; 0.2 µM,1.03
same,viability,[12]; 1 µM,0.939
same,viability,[12]; 5 µM,0.917
same,viability,[13]; 0.024 µM,1.03
same,viability,[13]; 0.12 µM,0.986
same,viability,[13]; 0.6 µM,0.999
same,viability,[13]; 3 µM,0.814
same,viability,[13]; 15 µM,0.224
same,viability,[14]; 0.032 µM,1.04
same,viability,[14]; 0.16 µM,1.09
same,viability,[14]; 0.8 µM,1.07
same,viability,[14]; 4 µM,1.04
same,viability,[14]; 20 µM,0.962
primary FL patient cells (S022),viability,[1]; 0.024 µM,1.07
same,viability,[1]; 0.12 µM,0.992
same,viability,[1]; 0.6 µM,1.07
same,viability,[1]; 3 µM,0.961
same,viability,[1]; 15 µM,0.984
same,viability,[2]; 0.00064 µM,1.01
same,viability,[2]; 0.0032 µM,0.894
same,viability,[2]; 0.016 µM,0.67
same,viability,[2]; 0.08 µM,0.313
same,viability,[2]; 0.4 µM,0.066
same,viability,[3]; 0.008 µM,0.888
same,viability,[3]; 0.04 µM,0.929
same,viability,[3]; 0.2 µM,0.895
same,viability,[3]; 1 µM,0.911
same,viability,[3]; 5 µM,0.96
same,viability,[4]; 0.024 µM,1.01
same,viability,[4]; 0.12 µM,1.05
same,viability,[4]; 0.6 µM,1.07
same,viability,[4]; 3 µM,0.933
same,viability,[4]; 15 µM,0.964
same,viability,[5]; 0.016 µM,0.568
same,viability,[5]; 0.08 µM,0.451
same,viability,[5]; 0.4 µM,0.373
same,viability,[5]; 2 µM,0.348
same,viability,[5]; 10 µM,0.214
same,viability,[6]; 0.024 µM,0.902
same,viability,[6]; 0.12 µM,0.937
same,viability,[6]; 0.6 µM,0.808
same,viability,[6]; 3 µM,0.9
same,viability,[6]; 15 µM,0.484
same,viability,[7]; 0.016 µM,1.18
same,viability,[7]; 0.08 µM,1.06
same,viability,[7]; 0.4 µM,0.968
same,viability,[7]; 2 µM,0.963
same,viability,[7]; 10 µM,0.961
same,viability,[8]; 0.0008 µM,0.844
same,viability,[8]; 0.004 µM,0.871
same,viability,[8]; 0.02 µM,0.904
same,viability,[8]; 0.1 µM,0.972
same,viability,[8]; 0.5 µM,0.935
same,viability,[9]; 0.024 µM,1.08
same,viability,[9]; 0.12 µM,1.04
same,viability,[9]; 0.6 µM,0.978
same,viability,[9]; 3 µM,0.997
same,viability,[9]; 15 µM,0.892
same,viability,[10]; 0.024 µM,0.869
same,viability,[10]; 0.12 µM,0.929
same,viability,[10]; 0.6 µM,1
same,viability,[10]; 3 µM,0.873
same,viability,[10]; 15 µM,1.03
same,viability,[11]; 0.032 µM,1.08
same,viability,[11]; 0.16 µM,0.896
same,viability,[11]; 0.8 µM,1.08
same,viability,[11]; 4 µM,1.04
same,viability,[11]; 20 µM,0.582
same,viability,[12]; 0.008 µM,0.987
same,viability,[12]; 0.04 µM,0.861
same,viability,[12]; 0.2 µM,0.779
same,viability,[12]; 1 µM,0.383
same,viability,[12]; 5 µM,0.333
same,viability,[13]; 0.024 µM,1.05
same,viability,[13]; 0.12 µM,1.01
same,viability,[13]; 0.6 µM,1.11
same,viability,[13]; 3 µM,1.03
same,viability,[13]; 15 µM,0.774
same,viability,[14]; 0.032 µM,1.13
same,viability,[14]; 0.16 µM,1.1
same,viability,[14]; 0.8 µM,1.19
same,viability,[14]; 4 µM,1.14
same,viability,[14]; 20 µM,0.888
primary FL patient cells (S087),viability,[1]; 0.024 µM,1.02
same,viability,[1]; 0.12 µM,0.957
same,viability,[1]; 0.6 µM,1.08
same,viability,[1]; 3 µM,1.04
same,viability,[1]; 15 µM,0.912
same,viability,[2]; 0.00064 µM,1.01
same,viability,[2]; 0.0032 µM,0.938
same,viability,[2]; 0.016 µM,0.74
same,viability,[2]; 0.08 µM,0.364
same,viability,[2]; 0.4 µM,0.0932
same,viability,[3]; 0.008 µM,0.961
same,viability,[3]; 0.04 µM,0.903
same,viability,[3]; 0.2 µM,0.943
same,viability,[3]; 1 µM,0.886
same,viability,[3]; 5 µM,0.851
same,viability,[4]; 0.024 µM,1.09
same,viability,[4]; 0.12 µM,1.01
same,viability,[4]; 0.6 µM,1.04
same,viability,[4]; 3 µM,1.06
same,viability,[4]; 15 µM,1.02
same,viability,[5]; 0.016 µM,0.87
same,viability,[5]; 0.08 µM,0.836
same,viability,[5]; 0.4 µM,0.728
same,viability,[5]; 2 µM,0.737
same,viability,[5]; 10 µM,0.637
same,viability,[6]; 0.024 µM,1.02
same,viability,[6]; 0.12 µM,0.957
same,viability,[6]; 0.6 µM,0.923
same,viability,[6]; 3 µM,0.967
same,viability,[6]; 15 µM,0.645
same,viability,[7]; 0.016 µM,1.02
same,viability,[7]; 0.08 µM,1.02
same,viability,[7]; 0.4 µM,1.05
same,viability,[7]; 2 µM,1.03
same,viability,[7]; 10 µM,0.98
same,viability,[8]; 0.0008 µM,0.918
same,viability,[8]; 0.004 µM,0.907
same,viability,[8]; 0.02 µM,0.967
same,viability,[8]; 0.1 µM,1.03
same,viability,[8]; 0.5 µM,1.01
same,viability,[9]; 0.024 µM,1.02
same,viability,[9]; 0.12 µM,1.01
same,viability,[9]; 0.6 µM,1.03
same,viability,[9]; 3 µM,0.993
same,viability,[9]; 15 µM,0.93
same,viability,[10]; 0.024 µM,0.885
same,viability,[10]; 0.12 µM,0.938
same,viability,[10]; 0.6 µM,0.904
same,viability,[10]; 3 µM,0.829
same,viability,[10]; 15 µM,0.93
same,viability,[11]; 0.032 µM,0.991
same,viability,[11]; 0.16 µM,0.961
same,viability,[11]; 0.8 µM,0.955
same,viability,[11]; 4 µM,0.925
same,viability,[11]; 20 µM,0.706
same,viability,[12]; 0.008 µM,0.903
same,viability,[12]; 0.04 µM,0.872
same,viability,[12]; 0.2 µM,0.724
same,viability,[12]; 1 µM,0.681
same,viability,[12]; 5 µM,0.685
same,viability,[13]; 0.024 µM,0.997
same,viability,[13]; 0.12 µM,1.01
same,viability,[13]; 0.6 µM,1.04
same,viability,[13]; 3 µM,0.928
same,viability,[13]; 15 µM,0.795
same,viability,[14]; 0.032 µM,1.01
same,viability,[14]; 0.16 µM,1
same,viability,[14]; 0.8 µM,0.984
same,viability,[14]; 4 µM,0.99
same,viability,[14]; 20 µM,0.786
